PMC5290327, “SC83288 is a clinical development candidate for the treatment of severe malaria” (Nature Communications, 2017)

Assays:
Assay in all cases: KINOMEscan
Assay type in all cases: binding
Details in all cases: read-out: Remaining enzyme activity
HIPK3 = target: T1, HIPK3 (Homo sapiens, UniProt Q9H422)
T1 construct: purchased Ambit (DiscoverX) KINOMEscan; Cerep
Summary of the method: (§1)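 Competition binding: DNA-tagged kinase, immobilized active-site ligand and test compound were combined, and kinase left on beads was quantified by qPCR of the DNA tag. Kinases were T7 phage fusions grown in a BL21-derived E. coli host or were expressed in HEK-293 cells. SC81458 was tested at 10 μM final.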

ERK8 = target: T2, ERK8 (Homo sapiens, UniProt Q8TD08)
T2 construct: purchased Ambit (DiscoverX) KINOMEscan; Cerep
Summary of the method: as §1

PKN2 = target: T3, PKN2 (Homo sapiens, UniProt Q16513)
T3 construct: purchased Ambit (DiscoverX) KINOMEscan; Cerep
Summary of the method: as §1

DDR1 = target: T4, DDR1 (Homo sapiens, UniProt Q08345)
T4 construct: purchased Ambit (DiscoverX) KINOMEscan; Cerep
Summary of the method: as §1

AMPK-alpha1 = target: T5, AMPK-alpha1 (Homo sapiens, UniProt Q13131)
T5 construct: purchased Ambit (DiscoverX) KINOMEscan; Cerep
Summary of the method: as §1

PRKCH = target: T6, PRKCH (Homo sapiens, UniProt P24723)
T6 construct: purchased Ambit (DiscoverX) KINOMEscan; Cerep
Summary of the method: as §1

DRAK2 = target: T7, DRAK2 (Homo sapiens, UniProt O94768)
T7 construct: purchased Ambit (DiscoverX) KINOMEscan; Cerep
Summary of the method: as §1

ANKK1 = target: T8, ANKK1 (Homo sapiens, UniProt Q8NFD2)
T8 construct: purchased Ambit (DiscoverX) KINOMEscan; Cerep
Summary of the method: as §1

ERK4 = target: T9, ERK4 (Homo sapiens, UniProt P31152)
T9 construct: purchased Ambit (DiscoverX) KINOMEscan; Cerep
T9 sequence (P31152 whole entry): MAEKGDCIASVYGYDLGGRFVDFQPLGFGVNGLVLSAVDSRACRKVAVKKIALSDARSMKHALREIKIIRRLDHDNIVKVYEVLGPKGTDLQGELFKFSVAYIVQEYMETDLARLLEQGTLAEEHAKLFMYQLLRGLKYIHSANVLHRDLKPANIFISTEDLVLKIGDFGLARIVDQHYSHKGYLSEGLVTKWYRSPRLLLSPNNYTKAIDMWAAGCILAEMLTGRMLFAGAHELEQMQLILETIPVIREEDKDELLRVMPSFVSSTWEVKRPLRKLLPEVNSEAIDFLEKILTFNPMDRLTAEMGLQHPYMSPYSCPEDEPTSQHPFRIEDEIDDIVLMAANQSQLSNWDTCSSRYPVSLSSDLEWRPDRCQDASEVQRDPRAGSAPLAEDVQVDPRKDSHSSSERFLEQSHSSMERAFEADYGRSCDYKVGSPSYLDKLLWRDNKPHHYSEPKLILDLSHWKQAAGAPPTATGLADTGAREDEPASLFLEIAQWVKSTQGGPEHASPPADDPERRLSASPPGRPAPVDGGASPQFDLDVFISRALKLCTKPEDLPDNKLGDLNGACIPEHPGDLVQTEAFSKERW
Summary of the method: as §1

RAF1 = target: T10, RAF1 (Homo sapiens, UniProt P04049)
T10 construct: purchased Ambit (DiscoverX) KINOMEscan; Cerep
Summary of the method: as §1

PAK2 = target: T11, PAK2 (Homo sapiens, UniProt Q13177)
T11 construct: purchased Ambit (DiscoverX) KINOMEscan; Cerep
T11 sequence (Q13177 whole entry): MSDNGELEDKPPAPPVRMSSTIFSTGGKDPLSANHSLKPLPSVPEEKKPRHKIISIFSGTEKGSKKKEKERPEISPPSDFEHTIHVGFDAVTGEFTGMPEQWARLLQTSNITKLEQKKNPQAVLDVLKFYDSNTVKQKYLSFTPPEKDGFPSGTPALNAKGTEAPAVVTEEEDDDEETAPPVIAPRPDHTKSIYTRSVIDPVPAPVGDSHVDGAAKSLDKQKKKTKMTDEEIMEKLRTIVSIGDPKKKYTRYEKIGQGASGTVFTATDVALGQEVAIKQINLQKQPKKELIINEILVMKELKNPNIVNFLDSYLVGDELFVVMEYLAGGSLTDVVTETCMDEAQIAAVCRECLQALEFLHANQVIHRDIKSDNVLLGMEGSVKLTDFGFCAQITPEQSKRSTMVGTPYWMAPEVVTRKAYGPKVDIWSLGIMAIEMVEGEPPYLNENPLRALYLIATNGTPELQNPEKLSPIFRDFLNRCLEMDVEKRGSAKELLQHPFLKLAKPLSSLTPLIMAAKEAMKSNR
Summary of the method: as §1

MYO3b = target: T12, MYO3b (Homo sapiens, UniProt Q8WXR4)
T12 construct: purchased Ambit (DiscoverX) KINOMEscan; Cerep
Summary of the method: as §1

PLK4 = target: T13, PLK4 (Homo sapiens, UniProt O00444)
T13 construct: purchased Ambit (DiscoverX) KINOMEscan; Cerep
Summary of the method: as §1

[1] = target: T14, RPS6KA1(Kin.Dom.1-N-term) (Homo sapiens, UniProt Q15418)
T14 construct: RPS6KA1(Kin.Dom.1-N-term); purchased Ambit (DiscoverX) KINOMEscan; Cerep
Summary of the method: as §1

PRP4 = target: T15, PRP4 (Homo sapiens, UniProt Q13523)
T15 construct: purchased Ambit (DiscoverX) KINOMEscan; Cerep
Summary of the method: as §1

HUNK = target: T16, HUNK (Homo sapiens, UniProt P57058)
T16 construct: purchased Ambit (DiscoverX) KINOMEscan; Cerep
Summary of the method: as §1

MEK2 = target: T17, MEK2 (Homo sapiens, UniProt P36507)
T17 construct: purchased Ambit (DiscoverX) KINOMEscan; Cerep
T17 sequence (P36507 whole entry): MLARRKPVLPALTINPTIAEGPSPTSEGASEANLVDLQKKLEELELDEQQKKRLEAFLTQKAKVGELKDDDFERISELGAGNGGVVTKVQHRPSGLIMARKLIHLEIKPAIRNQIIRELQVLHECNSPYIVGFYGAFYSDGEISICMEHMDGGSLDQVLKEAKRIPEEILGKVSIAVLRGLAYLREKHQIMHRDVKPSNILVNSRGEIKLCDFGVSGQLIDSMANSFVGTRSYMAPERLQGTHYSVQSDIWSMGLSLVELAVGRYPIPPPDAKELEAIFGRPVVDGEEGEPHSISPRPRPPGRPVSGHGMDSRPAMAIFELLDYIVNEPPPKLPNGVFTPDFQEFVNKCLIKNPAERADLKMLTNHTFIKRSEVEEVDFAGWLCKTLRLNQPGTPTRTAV
Summary of the method: as §1

TGFBR1 = target: T18, TGFBR1 (Homo sapiens, UniProt P36897)
T18 construct: purchased Ambit (DiscoverX) KINOMEscan; Cerep
Summary of the method: as §1

MARK4 = target: T19, MARK4 (Homo sapiens, UniProt Q96L34)
T19 construct: purchased Ambit (DiscoverX) KINOMEscan; Cerep
T19 sequence (Q96L34 whole entry): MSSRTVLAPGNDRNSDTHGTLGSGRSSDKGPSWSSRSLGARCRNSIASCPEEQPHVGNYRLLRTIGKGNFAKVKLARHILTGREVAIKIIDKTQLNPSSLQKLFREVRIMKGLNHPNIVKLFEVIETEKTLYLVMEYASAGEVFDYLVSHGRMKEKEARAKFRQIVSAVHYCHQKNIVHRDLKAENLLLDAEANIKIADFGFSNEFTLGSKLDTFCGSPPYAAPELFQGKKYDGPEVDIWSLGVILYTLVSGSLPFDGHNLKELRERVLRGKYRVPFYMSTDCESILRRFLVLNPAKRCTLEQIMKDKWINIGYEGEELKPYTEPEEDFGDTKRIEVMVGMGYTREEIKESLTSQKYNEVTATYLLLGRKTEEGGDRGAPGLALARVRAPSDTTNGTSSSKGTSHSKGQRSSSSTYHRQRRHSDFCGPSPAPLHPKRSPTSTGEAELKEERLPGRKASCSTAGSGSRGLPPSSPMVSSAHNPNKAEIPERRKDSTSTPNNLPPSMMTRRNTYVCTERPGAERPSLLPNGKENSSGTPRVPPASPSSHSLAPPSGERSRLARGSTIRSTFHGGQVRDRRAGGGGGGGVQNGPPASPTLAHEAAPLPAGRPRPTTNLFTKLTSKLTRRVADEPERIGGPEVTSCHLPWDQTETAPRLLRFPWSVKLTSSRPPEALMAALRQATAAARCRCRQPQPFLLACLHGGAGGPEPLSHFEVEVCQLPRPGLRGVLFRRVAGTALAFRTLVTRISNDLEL
Summary of the method: as §1

ADCK3 = target: T20, ADCK3 (Homo sapiens, UniProt Q8NI60)
T20 construct: purchased Ambit (DiscoverX) KINOMEscan; Cerep
Summary of the method: as §1

KIT(D816V) = target: T21, KIT(D816V) (Homo sapiens, UniProt P10721, D816V)
T21 construct: purchased Ambit (DiscoverX) KINOMEscan; Cerep
Summary of the method: as §1

TRKb = target: T22, TRKb (Homo sapiens, UniProt Q16620)
T22 construct: purchased Ambit (DiscoverX) KINOMEscan; Cerep
T22 sequence (Q16620 32-822): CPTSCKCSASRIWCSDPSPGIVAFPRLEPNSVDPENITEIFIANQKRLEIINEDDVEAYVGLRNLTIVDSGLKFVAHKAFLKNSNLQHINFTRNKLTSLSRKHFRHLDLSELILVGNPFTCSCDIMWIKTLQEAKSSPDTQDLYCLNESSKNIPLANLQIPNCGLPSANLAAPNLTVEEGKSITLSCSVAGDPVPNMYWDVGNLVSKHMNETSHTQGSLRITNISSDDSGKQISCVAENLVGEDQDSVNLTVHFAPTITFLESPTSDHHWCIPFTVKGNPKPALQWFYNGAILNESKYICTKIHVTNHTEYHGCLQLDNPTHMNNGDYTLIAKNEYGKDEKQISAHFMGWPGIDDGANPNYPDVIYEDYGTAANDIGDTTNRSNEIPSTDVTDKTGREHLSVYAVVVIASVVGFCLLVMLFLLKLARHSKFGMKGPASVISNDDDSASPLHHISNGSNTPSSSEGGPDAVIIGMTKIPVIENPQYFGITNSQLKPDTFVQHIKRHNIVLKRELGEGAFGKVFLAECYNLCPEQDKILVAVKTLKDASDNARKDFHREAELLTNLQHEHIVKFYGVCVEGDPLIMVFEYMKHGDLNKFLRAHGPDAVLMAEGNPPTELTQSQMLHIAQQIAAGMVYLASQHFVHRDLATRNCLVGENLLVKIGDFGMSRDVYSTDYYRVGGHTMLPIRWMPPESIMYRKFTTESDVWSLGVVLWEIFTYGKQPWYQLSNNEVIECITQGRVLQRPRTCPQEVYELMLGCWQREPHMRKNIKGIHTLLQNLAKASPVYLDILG
Summary of the method: as §1

FGR = target: T23, FGR (Homo sapiens, UniProt P09769)
T23 construct: purchased Ambit (DiscoverX) KINOMEscan; Cerep
Summary of the method: as §1

MAP4K5 = target: T24, MAP4K5 (Homo sapiens, UniProt Q9Y4K4)
T24 construct: purchased Ambit (DiscoverX) KINOMEscan; Cerep
Summary of the method: as §1

DAPK1 = target: T25, DAPK1 (Homo sapiens, UniProt P53355)
T25 construct: purchased Ambit (DiscoverX) KINOMEscan; Cerep
Summary of the method: as §1

PRKD3 = target: T26, PRKD3 (Homo sapiens, UniProt O94806)
T26 construct: purchased Ambit (DiscoverX) KINOMEscan; Cerep
Summary of the method: as §1

ACVR2b = target: T27, ACVR2b (Homo sapiens, UniProt Q13705)
T27 construct: purchased Ambit (DiscoverX) KINOMEscan; Cerep
Summary of the method: as §1

PAK7 = target: T28, PAK7 (Homo sapiens, UniProt Q9P286)
T28 construct: purchased Ambit (DiscoverX) KINOMEscan; Cerep
Summary of the method: as §1

GRK1 = target: T29, GRK1 (Homo sapiens, UniProt Q15835)
T29 construct: purchased Ambit (DiscoverX) KINOMEscan; Cerep
Summary of the method: as §1

LATS2 = target: T30, LATS2 (Homo sapiens, UniProt Q9NRM7)
T30 construct: purchased Ambit (DiscoverX) KINOMEscan; Cerep
Summary of the method: as §1

TAOK3 = target: T31, TAOK3 (Homo sapiens, UniProt Q9H2K8)
T31 construct: purchased Ambit (DiscoverX) KINOMEscan; Cerep
Summary of the method: as §1

QSK = target: T32, QSK (Homo sapiens, UniProt Q9Y2K2)
T32 construct: purchased Ambit (DiscoverX) KINOMEscan; Cerep
T32 sequence (Q9Y2K2 whole entry): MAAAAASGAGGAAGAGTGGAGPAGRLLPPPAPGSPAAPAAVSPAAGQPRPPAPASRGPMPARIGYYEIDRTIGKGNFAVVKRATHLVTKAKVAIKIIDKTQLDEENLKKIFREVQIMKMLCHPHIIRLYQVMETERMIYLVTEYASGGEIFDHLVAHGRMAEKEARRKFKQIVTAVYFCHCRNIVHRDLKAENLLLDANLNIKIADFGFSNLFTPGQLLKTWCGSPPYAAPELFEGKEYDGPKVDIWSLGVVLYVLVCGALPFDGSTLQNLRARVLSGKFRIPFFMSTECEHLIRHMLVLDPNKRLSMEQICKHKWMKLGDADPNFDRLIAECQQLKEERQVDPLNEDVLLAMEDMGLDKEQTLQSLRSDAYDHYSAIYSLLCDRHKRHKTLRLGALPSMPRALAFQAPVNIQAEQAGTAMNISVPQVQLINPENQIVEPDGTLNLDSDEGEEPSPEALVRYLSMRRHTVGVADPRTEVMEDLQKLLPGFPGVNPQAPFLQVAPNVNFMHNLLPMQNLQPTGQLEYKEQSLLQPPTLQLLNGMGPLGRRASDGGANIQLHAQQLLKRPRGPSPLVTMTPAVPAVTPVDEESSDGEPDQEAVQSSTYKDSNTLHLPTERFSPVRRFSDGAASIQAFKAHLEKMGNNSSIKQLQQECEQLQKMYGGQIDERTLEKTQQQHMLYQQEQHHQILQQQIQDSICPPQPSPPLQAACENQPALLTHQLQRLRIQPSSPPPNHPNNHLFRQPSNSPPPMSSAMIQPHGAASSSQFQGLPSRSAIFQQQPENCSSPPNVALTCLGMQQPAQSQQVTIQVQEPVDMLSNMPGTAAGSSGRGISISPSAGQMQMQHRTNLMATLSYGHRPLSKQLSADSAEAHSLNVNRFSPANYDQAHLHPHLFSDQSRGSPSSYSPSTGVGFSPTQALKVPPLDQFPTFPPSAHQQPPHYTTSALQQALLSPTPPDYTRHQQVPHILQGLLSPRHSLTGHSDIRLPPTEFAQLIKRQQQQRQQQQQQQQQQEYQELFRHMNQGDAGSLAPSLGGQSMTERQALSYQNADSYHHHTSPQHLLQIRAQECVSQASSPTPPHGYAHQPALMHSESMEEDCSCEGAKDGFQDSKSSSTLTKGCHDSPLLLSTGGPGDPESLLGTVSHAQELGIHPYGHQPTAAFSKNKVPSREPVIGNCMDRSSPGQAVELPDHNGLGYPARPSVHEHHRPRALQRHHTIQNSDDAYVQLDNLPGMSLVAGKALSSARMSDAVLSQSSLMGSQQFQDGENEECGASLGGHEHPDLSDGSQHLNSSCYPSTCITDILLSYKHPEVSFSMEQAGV
Summary of the method: as §1

ABL2 = target: T33, ABL2 (Homo sapiens, UniProt P42684)
T33 construct: purchased Ambit (DiscoverX) KINOMEscan; Cerep
Summary of the method: as §1

BLK = target: T34, BLK (Homo sapiens, UniProt P51451)
T34 construct: purchased Ambit (DiscoverX) KINOMEscan; Cerep
T34 sequence (P51451 whole entry): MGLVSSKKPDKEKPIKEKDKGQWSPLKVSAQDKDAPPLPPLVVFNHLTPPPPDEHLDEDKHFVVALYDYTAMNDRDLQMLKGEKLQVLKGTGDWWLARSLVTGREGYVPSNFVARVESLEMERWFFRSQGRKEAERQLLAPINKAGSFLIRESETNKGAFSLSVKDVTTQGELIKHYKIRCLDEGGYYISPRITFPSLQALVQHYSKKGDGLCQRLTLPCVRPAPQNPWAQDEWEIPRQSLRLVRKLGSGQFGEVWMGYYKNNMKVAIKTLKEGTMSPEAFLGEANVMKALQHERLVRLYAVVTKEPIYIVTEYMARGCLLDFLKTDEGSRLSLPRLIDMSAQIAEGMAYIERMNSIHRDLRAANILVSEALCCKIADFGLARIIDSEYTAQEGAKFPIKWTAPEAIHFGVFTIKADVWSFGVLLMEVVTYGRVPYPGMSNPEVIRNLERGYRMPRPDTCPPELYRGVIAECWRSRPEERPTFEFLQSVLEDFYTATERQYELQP
Summary of the method: as §1

Q: With CCCCN1CCN(C(=N)c2cccc(NC(=O)Nc3ccc(S(=O)(=O)NCc4ccc(S(N)(=O)=O)cc4)cc3)c2)CC1 [SC81458, 4-(3-(3-((4-butylpiperazin-1-yl)(imino)methyl)phenyl)ureido)-N-(4-sulfamoylbenzyl) benzenesulfonamide] as the compound, how does the remaining binding at 10 µM (HIPK3) read?
A: 99%

Q: What about the remaining binding at 10 µM (ERK8) of the same compound?
A: 100%

Q: What about the remaining binding at 10 µM (PKN2) of the same compound?
A: 67%

Q: And the remaining binding at 10 µM (DDR1)?
A: 91%

Q: And the remaining binding at 10 µM (AMPK-alpha1)?
A: 100%

Q: And the remaining binding at 10 µM (PRKCH)?
A: 92%

Q: And the remaining binding at 10 µM (DRAK2)?
A: 88%

Q: What about the remaining binding at 10 µM (ANKK1) of the same compound?
A: 99%

Q: What about the remaining binding at 10 µM (ERK4) of the same compound?
A: 100%

Q: What about the remaining binding at 10 µM (RAF1) of the same compound?
A: 100%

Q: What about the remaining binding at 10 µM (PAK2) of the same compound?
A: 100%

Q: What about the remaining binding at 10 µM (MYO3b) of the same compound?
A: 100%

Q: What about the remaining binding at 10 µM (PLK4) of the same compound?
A: 93%

Q: What about the remaining binding at 10 µM [1] of the same compound?
A: 100%

Q: What about the remaining binding at 10 µM (PRP4) of the same compound?
A: 100%

Q: And the remaining binding at 10 µM (HUNK)?
A: 100%

Q: And the remaining binding at 10 µM (MEK2)?
A: 100%

Q: What about the remaining binding at 10 µM (TGFBR1) of the same compound?
A: 100%

Q: And the remaining binding at 10 µM (MARK4)?
A: 100%

Q: What about the remaining binding at 10 µM (ADCK3) of the same compound?
A: 100%

Q: And the remaining binding at 10 µM (KIT(D816V))?
A: 100%

Q: And the remaining binding at 10 µM (TRKb)?
A: 100%

Q: What about the remaining binding at 10 µM (FGR) of the same compound?
A: 100%

Q: And the remaining binding at 10 µM (MAP4K5)?
A: 100%

Q: What about the remaining binding at 10 µM (DAPK1) of the same compound?
A: 100%

Q: What about the remaining binding at 10 µM (PRKD3) of the same compound?
A: 100%

Q: And the remaining binding at 10 µM (ACVR2b)?
A: 93%

Q: What about the remaining binding at 10 µM (PAK7) of the same compound?
A: 100%

Q: What about the remaining binding at 10 µM (GRK1) of the same compound?
A: 100%

Q: What about the remaining binding at 10 µM (LATS2) of the same compound?
A: 100%

Q: And the remaining binding at 10 µM (TAOK3)?
A: 100%

Q: And the remaining binding at 10 µM (QSK)?
A: 100%

Q: What about the remaining binding at 10 µM (ABL2) of the same compound?
A: 77%

Q: And the remaining binding at 10 µM (BLK)?
A: 100%
